The values that follow are results of earlier work, collected in US20250332118A1, “NOVEL ORAL CARE FORMULATIONS FOR TREATMENT OF XEROSTOMIA” (priority 2022, published 2025).

For the data set the following is noted: @ 79° F.

As to `CS(C)(=O)=O` [MSM, Methylsulfonylmethane], the Water solubility is given as 34 % w/v.
